Common to all, as to type: physicochemical
Series [1] in a line: Stabilities of the emulsions according to the added concentrations of the azacycloalkane derivative (Referential Experiment 2). The conditions noted are these: for Observation after 3 days standing / Observation after 7 days standing: room temperature. As to the method: Each 5 ml of a 1% (W/V) solution preliminarily prepared by dissolving dipotassium glycyrrhizate in distilled water was poured in each of eight 10 ml size test tubes, and thereto was added 1-[2-(decylthio)ethyl] azacyclopentane-2-one selected from the azacycloalkane derivatives so as to make a concentration ranging from 0 to 10%. Then the mixture was agitated for 1 minute using Biomixer (NIHON SEIKI SEISAKUSHO) at 15,000 rpm to prepare each emulsion. The state of dispersion just after the preparation, or after 3 days or 7 days standing at room temperature was observed.

Series [2] in a line: Turbidity just after preparation (absorbance at 650 nm) as index of emulsifiability (Referential Experiment 1). The following applies: for Turbidity (650 nm): just after preparation. As to the method:
(§1) […] The mixutre was agitated under 15,000 rpm for 1 minute by Biomixer (NIHON SEIKI SEISAKUSHO) to prepare each emulsion. The state of dispersion just after the preparation and after 3 days standing at room temperature was observed. The turbidity just after the preparation was measured by absorbance at 650 nm, and used as the index of emulsifiability.

The nature of series [3]: State of dispersion of emulsions of 1-[2-(decylthio)ethyl]azacyclopentan-2-one made with three emulsifying agents (Referential Experiment 1). As to the method:
Using 1-[2-(decylthio)ethyl]azacyclopentan-2-one selected from the azacycloalkane derivatives, and three emulsifying agents hereinbelow, emulsifiabilities and stabilities of the emulsions were examined.
as §1

The mark [4] stands for this setting: azacycloalkane 10.0 % in 1% dipotassium glycyrrhizate.

Regarding `CCCCCCCCCCSCCN1CCCC1=O` [1-[2-(decylthio)ethyl]azacyclopentane-2-one], the “Observation just after preparation” value in series [1] (azacycloalkane 0.01 % in 1% dipotassium glycyrrhizate) is recorded as “Colorless clear”; in series [1] (azacycloalkane 0.1 % in 1% dipotassium glycyrrhizate) it was “Colorless clear”; in series [1] (azacycloalkane 0.5 % in 1% dipotassium glycyrrhizate) it was “Colorless clear”; in series [1] (azacycloalkane 1.0 % in 1% dipotassium glycyrrhizate), “White clear”; in series [1] (azacycloalkane 2.0 % in 1% dipotassium glycyrrhizate), “White clear”; in series [1] (azacycloalkane 5.0 % in 1% dipotassium glycyrrhizate) it was “White emulsified”. In addition, the “Observation just after preparation” value in series [1] (setting [4]) is on record as “White emulsified”. Besides, in series [1] (azacycloalkane 0.01% to 10% at 1% dipotassium glycyrrhizate), the “Emulsification and emulsion stability” value is “good emulsification and gave stable emulsion”. Also, the “Observation after 3 days standing” value in series [1] (azacycloalkane 0.01 %) was “Colorless clear”; in series [1] (azacycloalkane 0.1 %), “Colorless clear”; in series [1] (azacycloalkane 0.5 %) it was “Colorless clear”; in series [1] (azacycloalkane 1.0 %), “White clear”; in series [1] (azacycloalkane 2.0 %) it was “White clear”; in series [1] (azacycloalkane 5.0 %) it was “White emulsified”. For the same molecule, in series [1] (setting [4]), the “Observation after 3 days standing” value is reported as “White emulsified”. Further, the “Observation after 7 days standing” value is listed as “Colorless clear” in series [1] (azacycloalkane 0.01 %); “Colorless clear” in series [1] (azacycloalkane 0.1 %); “Colorless clear” in series [1] (azacycloalkane 0.5 %); “White clear” in series [1] (azacycloalkane 1.0 %); “White clear” in series [1] (azacycloalkane 2.0 %); “White emulsified” in series [1] (azacycloalkane 5.0 %). For the same molecule, the “Observation after 7 days standing” value in series [1] (setting [4]) was “White emulsified”.
For the molecule `CC1(C)[C@@H](O[C@H]2O[C@H](C(=O)[O-])[C@@H](O)[C@H](O)[C@H]2O[C@@H]2O[C@H](C(=O)[O-])[C@@H](O)[C@H](O)[C@H]2O)CC[C@]2(C)[C@H]3C(=O)C=C4[C@@H]5C[C@@](C)(C(=O)O)CC[C@]5(C)CC[C@@]4(C)[C@]3(C)CC[C@@H]12.[K+].[K+]` [dipotassium glycyrrhizate], the “Turbidity (650 nm)” value came out at 1.284 in series [2] (emulsifying agent 0.1 %); 0.459 in series [2] (emulsifying agent 0.5 %); 0.437 in series [2] (emulsifying agent 1.0 %); 0.405 in series [2] (emulsifying agent 2.0 %); 0.346 in series [2] (emulsifying agent 3.0 %); 0.006 in series [2] (emulsifying agent 4.0 %). For the same molecule, the “Turbidity (650 nm)” value in series [2] (emulsifying agent 5.0 %) was determined as 0.006. The “Turbidity as index of emulsifiability, compared with HCO-60 and polysorbate 80” value in series [2] (same concentration level) is on record as “stronger emulsifiability”. Also, the “Just after preparation (state of dispersion)” value in series [3] (emulsifying agent 0.5 %), in series [3] (emulsifying agent 1.0 %), in series [3] (emulsifying agent 2.0 %) and in series [3] (emulsifying agent 3.0 %) was “White clear” each time. Besides, in series [3] (emulsifying agent at 0.1-5 %), the “Emulsification” value is “good emulsification”. Further, in series [3] (emulsifying agent at 4-5 %), the “Dissolution” value is recorded as “full dissolution”.

These data come from patent publication US5407911A, “Parathyroid hormone-containing emulsion for nasal administration” (Asahi Kasei Kogyo Kabushiki Kaisha, priority 1991, dated 1995).
